Entries after “also recorded” stand apart in the source; their conditions may differ.

The values below come from US20040018501A1, “Methods and systems for analyzing complex biological systems” (priority 2001, published 2004).

The subject of experiment [1] is Arabidopsis thaliana plants. As to the kind of experiment: SOA1 phenotypic analysis of herbicide-treated plants. Format: in vivo.
For experiment [2], the system named is Magnaporthe grisea. Format: cell-based.
Experiment [3] deals with Arabidopsis thaliana. As to the kind of experiment: MOA1 biochemical (metabolite) profiling by LC-MS and GC-MS.
Experiment [4] has as its system Arabidopsis thaliana. The experiment can be described thus: MOA1 gene expression profiling (22,000-gene microarray).
Description: Lyophilized tissues were first re-hydrated using [sequence] (Ambion, Inc., Austin, Tex.).

Regarding `O=C(O)CNCP(=O)(O)O` [Glyphosate], the “characteristic symptoms (phenotype)” value in experiment [1] (herbicide-treated plants) is recorded as “anthocyanin accumulation in the older leaves accompanied by chlorosis of the newly emerging leaves”. Besides, the “tMic Dev.” value in experiment [1] (numeric value standardized to mock treated) was 2. Further, the “Symptom Class” value in experiment [1] (three-week-old plants, foliar spray) stood at 4. The “growth inhibition with aromatic amino acids included in the media” value in experiment [2] (1.0 mg/ml) is on record as “remediated”. In addition, the “growth of M. grisea (Tier 4)” value in experiment [2] (ammonium or glutamine as nitrogen source) is “Little growth defect”. In experiment [3] (20 min, p < 0.05), the “Number of Metabolites Changed: Total #” value is 4. Further, the “tyrosine (downstream of SOA) relative to the control” value in experiment [3] (after one hour) is reported as “decreased”.
For the compound `CS(=O)(=O)c1cc(C(F)(F)F)ccc1C(=O)c1cnoc1C1CC1` [Isoxaflutole], in experiment [4] (1 hr), the “alterations in the expression of genes involved in the homogentisate biosynthetic pathway” value was “not observed”. In addition, in experiment [4] (regulated genes compared to internal list of essential genes), the “No. of Lethal Genes Altered” value worked out at 15. For the same compound, the “Alpha-tocopherol levels relative to the control” value in experiment [3] (early time points) is listed as “not significantly changed”. Besides, the “tyrosine and phenylalanine relative to the control” value in experiment [3] (early time points (up to 1 hour)) is “up-regulated; also recorded: began to accumulate”.
